In patent US20150377888A1, “Methods for Predicting and Preventing Metastasis in Triple Negative Breast Cancers” (INSERM (INSTITUT NATIONAL DE LA SANTÉ ET DE LA RECHERCHE …, priority 2013, published 2015):

Columns and labels:
PI3K = assay: Immunoblot of Akt phosphorylation at Ser473 (hallmark of PI3K activation) in cells exposed to cl-CD95L; format: cell-based, human; details: for effect on CD95-mediated PI3K activation (phosphorylation of Akt at serine 473): breast cancer / TNBC cells exposed to cl-CD95L; for effect on CD95-mediated activation of Aid: pre-treatment of mammary cancer cells, non-cytotoxic amounts
Description: (§1) Cells were lysed for 30 min at 4° C. in lysis buffer [25 mM HEPES (pH 7.4), 1% v/v Triton X-100, 150 mM NaCl, and 2 mM EGTA supplemented with a mix of protease inhibitors (Sigma-Aldrich)]. Protein concentration was determined by the bicinchoninic acid method (PIERCE, Rockford, Ill., USA) according to the manufacturer's protocol. Proteins were separated by SDS-PAGE and transferred to a nitrocellulose membrane (GE Healthcare, Buckinghamshire, England). […] The proteins were visualized with the enhanced chemiluminescence substrate kit (ECL, GE Healthcare).

[1] = test system: TNBC breast cancer cell lines (Hs578T, MDA-MB-231 and MDA-MB-468); assay: In vitro motility assay (Boyden chambers); format: cell-based, human; details: cells pre-treated with the agent (inhibitors at non-cytotoxic amounts), exposed to cl-CD95L
Description: Boyden chambers (Millipore, Molsheim, France) containing 8 μm pore membranes were cultured in 24-well plates. After hydration of the membranes, 10^5 cells were added to the top chamber in low serum (1%)-containing medium. […] Cells were cultured for 24 h at 37° C. in a 5% CO2 humidified incubator. To quantify invasion, cells were fixed with methanol and stained with Giemsa. Stained cells were then removed from the top side of the membrane using a cotton-tipped swab and five representative pictures for each insert were taken of the invading cells from the reverse side. For each experiment, cells were lysed and absorbance at 560 nm was measured.

c-yes = c-yes activation status (auto-phosphorylation at Tyrosine 426); format: cell-based, human; details: pre-treatment of mammary cancer cells, non-cytotoxic amounts
Description: as §1

NADPHox = assay: Flow cytometry analysis of intracellular ROS (H2FDA); format: cell-based, human; details: pre-treatment with NADPHox inhibitor
Description: Cells were pre-incubated for 30 min at 37° C. with 3 μM of H2FDA resuspended in PBS. The cells were then pre-incubated for an additional 30 min with or without ROS inhibitors before stimulation with 100 ng/ml cl-CD95L for the indicated times. Cells were then washed and analyzed by FACScalibur (BD Bioscience).

EGFR = assay: Ca2+ monitoring: EGF-induced Ca2+ response; format: cell-based, human; details: TNBC cells (MDA-MB-231) in presence of EGF
Description: For experiments on parent cell lines, breast cancer cells were loaded with Fura2-PE3-AM (1 μM) at room temperature for 30 min in Hank's Balanced Salt Solution (HBSS). […] To minimize UV light exposure, a 4×4 binning function was used. Fura2-AM was alternately excited at 340 and 380 nm, and the ratios of the resulting images (excitations at 340 and 380 nm and emission filter at 520 nm) were produced at constant intervals (10 seconds). […] Fratio reflects the intracellular Ca^2+ concentration changes. Each experiment was repeated 3 times, and for each experimental condition, the average of more than 20 single-cell traces was used.

[2] = test system: CD95-mediated Ca2+ response; assay: Ca2+ monitoring: CD95-mediated Ca2+ response; format: cell-based, human; details: TNBC cells exposed to cl-CD95L
Description: For experiments on parent cell lines, breast cancer cells were loaded with Fura2-PE3-AM (1 μM) at room temperature for 30 min in Hank's Balanced Salt Solution (HBSS). After washing with HBSS, the cells were incubated for 15 min in the absence of Fura2-AM to complete de-esterification of the dye. Cells were placed in the temperature controlled chamber (37° C.) of an inverted epifluorescence microscope (Olympus IX70) equipped with an ×40 UApo/340-1.15 W water-immersion objective (Olympus), and fluorescence micrograph images were captured at 510 nm and 12-bit resolution by a fast-scan camera (CoolSNAP fx Monochrome, Photometrics). To minimize UV light exposure, a 4×4 binning function was used. […]
For experiments on GFP-expressing cell lines, Fluo8-AM was used, instead of Fura2-PE3-AM for experiments with GFP-expressing cells (infected with shRNA-expressing lentivirus), because GFP fluorescence disturbs Ca^2+ measurement with Fura2-PE3. Efficiently transduced cells (GFP expressing cells) were located by their emission of fluorescence at 530±30 nm for a light excitation at 485±22 nm. Ca^2+ changes were evaluated by exciting Fluo8-AM-loaded cells at […]. The values of the emitted fluorescence (605±50 nm) for each cell (F) were normalized to the starting fluorescence (F0) and reported as F/F0 (relative Ca^2+[CYT]). […]

CD95 (human) = CD95 (human) (UniProt P25445); assay: cell-based or functional assay
Nox-4 = molecular target: T1, Nox-4 (human, UniProt Q9NPH5 1-578, limits assumed); assay: co-immunoprecipitation of CD95 (MISC) from MDA-MB-231 cells stimulated with cl-CD95L
T1 sequence (looked up): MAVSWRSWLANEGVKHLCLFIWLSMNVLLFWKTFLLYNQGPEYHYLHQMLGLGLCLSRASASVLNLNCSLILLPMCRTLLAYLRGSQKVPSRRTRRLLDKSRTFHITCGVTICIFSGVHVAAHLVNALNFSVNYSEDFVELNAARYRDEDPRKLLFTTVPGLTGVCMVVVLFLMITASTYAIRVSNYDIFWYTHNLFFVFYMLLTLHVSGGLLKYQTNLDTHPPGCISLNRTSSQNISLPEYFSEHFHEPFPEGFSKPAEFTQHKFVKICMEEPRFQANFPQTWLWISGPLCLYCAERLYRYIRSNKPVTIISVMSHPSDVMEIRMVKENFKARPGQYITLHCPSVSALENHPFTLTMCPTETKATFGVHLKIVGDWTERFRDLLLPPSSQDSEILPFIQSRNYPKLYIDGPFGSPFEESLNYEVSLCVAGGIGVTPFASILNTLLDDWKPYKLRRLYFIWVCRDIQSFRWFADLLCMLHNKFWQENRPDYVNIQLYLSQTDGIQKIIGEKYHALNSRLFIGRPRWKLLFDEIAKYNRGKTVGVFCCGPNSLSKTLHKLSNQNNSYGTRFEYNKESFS
Description: (§2) The cells were then lysed, 1 μg of Apo1-3 was added to the cell lysate and CD95 was immunoprecipitated by the addition of protein A-sepharose beads (Sigma-Aldrich). […] After extensive washing, the immune complex was resolved by SDS-PAGE.

Nox-2 = molecular target: T2, Nox-2 (human, UniProt P04839 2-570); assay: as above
T2 sequence (looked up): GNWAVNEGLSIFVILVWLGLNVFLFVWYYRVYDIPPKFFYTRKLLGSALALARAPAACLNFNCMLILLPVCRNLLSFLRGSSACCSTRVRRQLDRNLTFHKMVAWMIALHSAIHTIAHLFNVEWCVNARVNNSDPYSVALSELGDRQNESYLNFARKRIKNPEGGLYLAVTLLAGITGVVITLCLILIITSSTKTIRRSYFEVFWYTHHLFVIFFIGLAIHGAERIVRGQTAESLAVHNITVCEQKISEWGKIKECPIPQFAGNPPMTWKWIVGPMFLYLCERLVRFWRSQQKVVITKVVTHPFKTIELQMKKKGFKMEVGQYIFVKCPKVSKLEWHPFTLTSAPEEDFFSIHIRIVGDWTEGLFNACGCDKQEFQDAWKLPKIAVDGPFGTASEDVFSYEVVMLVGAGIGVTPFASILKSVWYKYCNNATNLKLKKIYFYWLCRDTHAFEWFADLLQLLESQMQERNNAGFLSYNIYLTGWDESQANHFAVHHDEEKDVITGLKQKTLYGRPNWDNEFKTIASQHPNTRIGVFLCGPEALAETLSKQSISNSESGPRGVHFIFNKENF
Description: as §2

Nox-1 = molecular target: T3, Nox-1 (human, UniProt Q9Y5S8 1-564, limits assumed); assay: as above
T3 sequence (looked up): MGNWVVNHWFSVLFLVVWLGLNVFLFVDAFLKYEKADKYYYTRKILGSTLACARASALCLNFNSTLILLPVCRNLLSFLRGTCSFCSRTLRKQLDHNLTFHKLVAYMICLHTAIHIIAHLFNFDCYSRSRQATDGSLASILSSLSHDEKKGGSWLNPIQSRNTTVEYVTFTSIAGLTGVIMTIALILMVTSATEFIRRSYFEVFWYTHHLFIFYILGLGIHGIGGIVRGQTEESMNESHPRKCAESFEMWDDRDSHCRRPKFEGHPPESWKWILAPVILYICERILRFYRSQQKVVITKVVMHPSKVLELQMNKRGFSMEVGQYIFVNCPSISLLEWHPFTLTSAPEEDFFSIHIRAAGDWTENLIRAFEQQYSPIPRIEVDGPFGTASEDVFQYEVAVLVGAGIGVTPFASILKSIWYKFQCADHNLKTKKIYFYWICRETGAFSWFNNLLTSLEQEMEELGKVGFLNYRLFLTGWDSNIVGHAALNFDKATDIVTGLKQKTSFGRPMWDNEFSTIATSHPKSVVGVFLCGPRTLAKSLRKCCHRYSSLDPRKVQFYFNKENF
Description: as §2

Molecule: CC(=O)OCOC(=O)CN(CC(=O)OCOC(C)=O)c1ccccc1OCCOc1ccccc1N(CC(=O)OCOC(C)=O)CC(=O)OCOC(C)=O [BAPTA-AM, 1,2-bis-(o-Aminophenoxy)ethane-N,N,N′,N′-tetraacetic Acid Tetra-(acetoxymethyl) Ester]
- effect on CD95-mediated PI3K activation (phosphorylation of Akt at serine 473) (PI3K): inhibited
- effect on migration of TNBC cells exposed to cl-CD95L [1]: inhibited

Molecule: Cc1nnsc1C(=O)Nc1ccc(-n2nc(C(F)(F)F)cc2C(F)(F)F)cc1 [BTP2]
- effect on CD95-mediated PI3K activation (phosphorylation of Akt at serine 473) (PI3K): inhibited
- effect on migration of TNBC cells exposed to cl-CD95L [1]: inhibited

Molecule: c1ccc2c(c1)[I+]c1ccccc1-2 [DPI, diphenyleneiodonium chloride]
- effect on CD95-mediated activation of Aid (PI3K): impaired
- effect on CD95-mediated activation of c-yes (c-yes): impaired
- effect on cl-CD95L-induced increase in intracellular ROS (NADPHox): blocked
- effect on migration of TNBC cells exposed to cl-CD95L [1]: inhibited cell migration

Molecule: COc1cc(C(C)=O)ccc1O [apocynin]
- effect on CD95-mediated activation of Aid (PI3K): impaired
- effect on CD95-mediated activation of c-yes (c-yes): impaired
- effect on cl-CD95L-induced increase in intracellular ROS (NADPHox): blocked
- effect on migration of TNBC cells exposed to cl-CD95L [1]: inhibited cell migration

Molecule: C#Cc1cccc(Nc2ncnc3cc(OCCOC)c(OCCOC)cc23)c1 [erlotinib]
- effect on CD95-mediated PI3K activation (phosphorylation of Akt at serine 473) (PI3K): prevented
- effect on migration of TNBC cells exposed to cl-CD95L [1]: abolished
- effect on EGF-induced Ca2+ response (EGFR): blocked
- effect on EGF-induced Ca2+ response (EGFR; listed as Erlotinib): abolished
- effect on CD95-mediated Ca2+ response [2]: neither treatment with erlotinib nor EGFR silencing altered
- effect on CD95-mediated Ca2+ response ([2]; listed as Erlotinib): do not alter

Molecule: metalloprotease-cleaved CD95L (from UniProt P48023 130-281) (ligand)
- cell migration (Boyden chamber) of TNBC cells (CD95 (human)): 100 pg/mL

B1: CD95 (receptor)
chain: QVTDINSKGLELRKTVTTVETQNLEGLHHDGQFCHKPCPPGERKARDCTVNGDEPDCVPCQEGKEYTDKAHFSSKCRRCRLCDEGHGLEVEINCTRTQNTKCRCKPNFFCNSTVCEHCDPCTKCEHGIIKECTLTSNTKCKEEGSRSNLGWLCLLLLPIPLIVWVKRKEVQKTCRKHRKENQGSHESPTLNPETVAINLSDVDLSKYITTIAGVMTLSQVKGFVRKNGVNEAKIDEIKNDNVQDTAEQKVQLLRNWHQLHGKKEAYDTLIKDLKKANLCTLAEKIQTIILKDITSDSENSNFRNEIQSLV
notes: also called Fas; FasR
- binding result (Nox-4): no binding
- binding result (Nox-2): no binding
- binding result (Nox-1): no binding
